Results published in paper PMC4692446, “Compound K Production from Red Ginseng Extract by β-Glycosidase from Sulfolobus solfataricus Supplemented with α-L-Arabinofuranosidase from Caldicellulosiruptor saccharolyticus” (PLoS ONE, 2015).

Target: T1, SS-bgly (β-glycosidase from Sulfolobus solfataricus) (Saccharolobus solfataricus, UniProt P22498)
T1 construct: gene lacS; full-length gene from genomic DNA in pET-24a, NdeI/BamHI, own stop codon, no tag; E. coli ER2566; heat-treated soluble enzyme (75°C)
T1 sequence (P22498 1-489): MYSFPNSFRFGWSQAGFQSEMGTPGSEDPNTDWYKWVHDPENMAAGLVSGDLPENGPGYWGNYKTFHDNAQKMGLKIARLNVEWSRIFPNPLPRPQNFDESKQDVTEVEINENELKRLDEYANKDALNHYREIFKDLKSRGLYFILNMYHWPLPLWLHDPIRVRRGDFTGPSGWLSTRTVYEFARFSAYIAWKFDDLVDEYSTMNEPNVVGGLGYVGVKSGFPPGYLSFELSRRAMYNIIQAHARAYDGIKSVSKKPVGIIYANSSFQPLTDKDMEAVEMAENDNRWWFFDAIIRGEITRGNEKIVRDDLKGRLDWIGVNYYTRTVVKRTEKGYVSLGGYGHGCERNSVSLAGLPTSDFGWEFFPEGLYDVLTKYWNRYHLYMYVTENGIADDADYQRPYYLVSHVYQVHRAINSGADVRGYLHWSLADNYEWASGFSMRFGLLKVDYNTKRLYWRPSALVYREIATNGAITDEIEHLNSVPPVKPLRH
Test: TLC of reaction products
Assay type: biochemical
Conditions: 80°C, pH 6.0 citrate/phosphate; SS-bgly alone; product C-Mc

For `CC(C)=CCC[C@](C)(O[C@@H]1O[C@H](CO[C@@H]2O[C@@H](CO)[C@H](O)[C@H]2O)[C@@H](O)[C@H](O)[C@H]1O)[C@H]1CC[C@]2(C)[C@@H]1[C@H](O)C[C@@H]1[C@@]3(C)CC[C@H](O[C@@H]4O[C@H](CO)[C@@H](O)[C@H](O)[C@H]4O[C@@H]4O[C@H](CO)[C@@H](O)[C@H](O)[C@H]4O)C(C)(C)[C@@H]3CC[C@]12C` [Rc, ginsenoside Rc], the “TLC of reaction products” value was “whereas only C-Mc was obtained by SS-bgly alone”.
